According to ChEMBL document CHEMBL1201862, “PubChem BioAssay data set” (2004):
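1) Cells in 96-well plates. 2) Compound, 48 h, 5 concentrations. 3) Linear interpolation between surrounding doses. 4) Unreached endpoint = highest concentration. GI50 marks 50% less growth.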 Activity calls are given as the source filed them. Rule as the data show it: active = GI50 up to about 1.1 µM and inactive = higher.

Tests used:
Assay in all cases: DTP human tumour cell line panel, 48 h
ACHN = test system: ACHN
RPMI-8226 = test system: RPMI-8226
MOLT-4 = test system: MOLT-4
HT-29 = test system: HT-29
Malme-3M = test system: Malme-3M
U-251 = test system: U-251
NCI-H460 = test system: NCI-H460
COLO 205 = test system: COLO 205
K562 = test system: K562
HCT-116 = test system: HCT-116
A498 = test system: A498
A549 = test system: A549
SF-268 = test system: SF-268
HOP-62 = test system: HOP-62
OVCAR-8 = test system: OVCAR-8
UACC-62 = test system: UACC-62

| Structure (SMILES) | GI50 (ACHN) | GI50 (RPMI-8226) | GI50 (MOLT-4) | GI50 (HT-29) | GI50 (Malme-3M) | GI50 (U-251) | GI50 (NCI-H460) | GI50 (COLO 205) | GI50 (K562) | GI50 (HCT-116) | GI50 (A498) | GI50 (A549) | GI50 (SF-268) | GI50 (HOP-62) | GI50 (OVCAR-8) | GI50 (UACC-62) |
| --- | --- | --- | --- | --- | --- | --- | --- | --- | --- | --- | --- | --- | --- | --- | --- | --- |
| COc1ccc2c3c([nH]c(=O)c2c1C(=O)O)-c1ccccc1CC3 | > 100 µM (inactive) | > 100 µM (inactive) | > 100 µM (inactive) | > 100 µM (inactive) | > 100 µM (inactive) | > 100 µM (inactive) | > 100 µM (inactive) | > 100 µM (inactive) | > 100 µM (inactive) | > 100 µM (inactive) | > 100 µM (inactive) | > 100 µM (inactive) | > 100 µM (inactive) | > 100 µM (inactive) | – | – |
| OCC1CC2CC1C1(C2)OCCO1 (configuration not stated) | > 100 µM (inactive) | > 100 µM (inactive) | > 100 µM (inactive) | > 100 µM (inactive) | > 100 µM (inactive) | > 100 µM (inactive) | > 100 µM (inactive) | > 100 µM (inactive) | > 100 µM (inactive) | > 100 µM (inactive) | > 100 µM (inactive) | > 100 µM (inactive) | > 100 µM (inactive) | > 100 µM (inactive) | > 100 µM (inactive) | > 100 µM (inactive) |
| CCC1(Br)C(=O)NC(=O)N(C2CC(O)C(CO)O2)C1N=[N+]=[N-] (configuration not stated) | > 100 µM (inactive) | > 100 µM (inactive) | > 100 µM (inactive) | > 100 µM (inactive) | > 100 µM (inactive) | > 100 µM (inactive) | > 100 µM (inactive) | > 100 µM (inactive) | > 100 µM (inactive) | – | > 100 µM (inactive) | > 100 µM (inactive) | > 100 µM (inactive) | > 100 µM (inactive) | > 100 µM (inactive) | > 100 µM (inactive) |
| O=Cc1[nH]c2ccccc2c1Br | 26 µM (inactive) | – | 22.5 µM (inactive) | 25.1 µM (inactive) | 18.5 µM (inactive) | 21.6 µM (inactive) | – | 17.7 µM (inactive) | 15 µM (inactive) | 18.5 µM (inactive) | 16.8 µM (inactive) | > 100 µM (inactive) | 22.9 µM (inactive) | 18 µM (inactive) | 23.7 µM (inactive) | 16.9 µM (inactive) |
| CC[P+]1(CC)CCCC1 | > 100 µM (inactive) | > 100 µM (inactive) | > 100 µM (inactive) | > 100 µM (inactive) | > 100 µM (inactive) | > 100 µM (inactive) | > 100 µM (inactive) | > 100 µM (inactive) | > 100 µM (inactive) | – | > 10 µM (inactive) | > 100 µM (inactive) | > 100 µM (inactive) | > 100 µM (inactive) | > 100 µM (inactive) | > 100 µM (inactive) |
| NC(=O)C(=Cc1ccc(C(O)P(=O)(O)O)cc1)C(N)=O (configuration not stated) | > 100 µM (inactive) | > 100 µM (inactive) | > 100 µM (inactive) | > 100 µM (inactive) | > 100 µM (inactive) | > 100 µM (inactive) | > 100 µM (inactive) | > 100 µM (inactive) | > 100 µM (inactive) | > 100 µM (inactive) | > 100 µM (inactive) | > 100 µM (inactive) | – | > 100 µM (inactive) | > 100 µM (inactive) | > 100 µM (inactive) |
| COC1CC(O[C@H]2CC[C@@]3(C)C(=CCC4(O)C3CCC35C(=O)OC6(C)O[C@@]43CCC65)C2)OC(C)C1O (some centres not stated) | > 100 µM (inactive) | > 100 µM (inactive) | > 100 µM (inactive) | > 100 µM (inactive) | > 100 µM (inactive) | > 100 µM (inactive) | > 100 µM (inactive) | > 100 µM (inactive) | > 100 µM (inactive) | > 100 µM (inactive) | > 100 µM (inactive) | > 100 µM (inactive) | > 100 µM (inactive) | > 100 µM (inactive) | > 100 µM (inactive) | > 100 µM (inactive) |
| C[C@@H](C1CCC2C3C(=CC(=O)[C@@]21C)[C@H](C)[C@]1(CCC(=O)O1)C1OC31)[C@H]1C[C@]2(C)O[C@@](C)(O1)OC2(C)C (some centres not stated) | > 100 µM (inactive) | > 100 µM (inactive) | > 100 µM (inactive) | > 100 µM (inactive) | – | > 100 µM (inactive) | > 100 µM (inactive) | > 100 µM (inactive) | > 100 µM (inactive) | > 100 µM (inactive) | > 100 µM (inactive) | > 100 µM (inactive) | > 100 µM (inactive) | – | > 100 µM (inactive) | > 100 µM (inactive) |
| C/N=C(\S)N/N=C/C(C)=N/N/C(S)=N/C | > 100 µM (inactive) | 0.583 µM (active) | 0.323 µM (active) | – | > 100 µM (inactive) | > 100 µM (inactive) | > 100 µM (inactive) | > 100 µM (inactive) | – | 0.0489 µM (active) | 48.2 µM (inactive) | > 100 µM (inactive) | > 100 µM (inactive) | > 100 µM (inactive) | – | > 100 µM (inactive) |
